Counter-ions that a name gives are not always drawn.
Tested on: QT interval
Assay: Antiarrhythmic Class III action in guinea pigs after intravenous administration (QT interval prolongation in the ECG)
Type: in vivo, Pirbright white guinea pigs
Settings: Cavia porcellus, anesthetized with urethane, ED 20% from linear relationship between log dose and relative QT prolongation (Δ%)
Method: The experimental animals used are male and female Pirbright white guinea pigs weighing from 300 to 500 g. Anesthesia is effected with 1.5 g/kg of urethane administered intraperitoneally. The substances are administered intravenously. To measure the ECG conduction times and the heart rate, the II. limb lead is recorded. The relevant parameters are the QT and PQ intervals and the heart rate. From 4 to 6 animals are used per dose. The criterion for Class III action is an increase in the QT interval compared with the values prior to administration of the substance. An increase in the PQ interval and a sharp decrease in the heart rate serve as exclusion criteria. The ED 20% is calculated from the linear relationship between log dose (mg/kg) of the substance and the relative prolongation of the QT interval (Δ%).

| Compound | ED (20%) [mg/kg] |
| --- | --- |
| Nc1ccc(C(=O)N2CC3CC(CN(Cc4ccccc4)C3)C2)cc1 [Ambasilide, reference compound] | 6.3 |
| CC(C)NC[C@@H](O)c1ccc(NS(C)(=O)=O)cc1 [D-sotalol, reference compound] | 3.6 |
| O=C(c1ccc(Cl)cc1)N1CC2CC(CN(Cc3ccccc3)C2)C1 [Example 2, 7-benzyl-3-(4-chlorobenzoyl)-3,7-diazabicyclo[3.3.1]nonyl hydrochloride] | 4.6 |
| Cc1ccc(NC(=O)N2CC3CC(CN(Cc4ccccc4)C3)C2)cc1 [Example 21, 7-Benzyl-3-(4-methylphenylcarbamyl)-3,7-diazabicyclo[3.3.1]nonane] | 2.6 |
| O=C(Nc1ccc(Cl)cc1)N1CC2CC(CN(Cc3ccccc3)C2)C1 [Example 23, 7-Benzyl-3-(4-chlorophenylcarbamyl)-3,7-diazabicyclo[3.3.1]nonane] | 2.4 |
| O=C(Nc1ccccc1)N1CC2CC(CN(Cc3ccc(Cl)cc3)C2)C1 [Example 26, 3-(Phenylcarbamyl)-7-(4-chlorobenzyl)-3,7-diazabicyclo[3.3.1]nonane] | 3.6 |
